Results taken from the NIST ThermoML archive (doi:10.1016/j.fluid.2015.12.026).
± gives the expanded uncertainty stated by the source.

Test: wn = mass fraction of the nth substance listed
Conditions: 101.3 kPa, Liquid, Vibrating tube method

SMILES | mass density (298.15 K, w1 = 0.0878) | mass density (313.15 K, w1 = 0.1087) | mass density (333.15 K, w1 = 0.1472) | mass density (298.15 K, w1 = 0.2315) | mass density (313.15 K, w1 = 0.2807) | mass density (333.15 K, w1 = 0.3526)
O=C(O)CCCCC(=O)O [1,6-hexanedioic acid] + OCCOCCO | 1171.8 ± 0.5 kg/m3 | 1175.7 ± 0.6 kg/m3 | 1188.2 ± 0.7 kg/m3 |  |  | 
NC(N)=O [urea] + OCCOCCO |  |  |  | 1160.9 ± 1.1 kg/m3 | 1174.2 ± 1.3 kg/m3 | 1184.5 ± 1.7 kg/m3
